Experimental data: ChEMBL document CHEMBL4130587, “Chemical Compounds as Inhibitors of Kinase Activity for the Treatment of Cancer and COPD” (ACS Med Chem Lett, 2017)

What was measured:
[1] = target: Phosphatidylinositol 4,5-bisphosphate 3-kinase catalytic subunit beta isoform (Homo sapiens, UniProt P42338); assay: Inhibition of GST-tagged PI3Kbeta […] (unknown origin) using PIP2 as subtrate after 1 hr in presence of biotin-labeled PIP3 by TR-FRET assay
[2] = target: Phosphatidylinositol 4,5-bisphosphate 3-kinase catalytic subunit gamma isoform (Homo sapiens, UniProt P48736); assay: Inhibition of GST-tagged PI3Kgamma […] (unknown origin) using PIP2 as subtrate after 1 hr in presence of biotin-labeled PIP3 by TR-FRET assay
[3] = target: T1, Phosphatidylinositol 4,5-bisphosphate 3-kinase catalytic subunit delta isoform (Homo sapiens, UniProt O00329); assay: Inhibition of GST-tagged PI3Kdelta […] (unknown origin) using PIP2 as subtrate after 1 hr in presence of biotin-labeled PIP3 by TR-FRET assay
T1 sequence (O00329 whole entry): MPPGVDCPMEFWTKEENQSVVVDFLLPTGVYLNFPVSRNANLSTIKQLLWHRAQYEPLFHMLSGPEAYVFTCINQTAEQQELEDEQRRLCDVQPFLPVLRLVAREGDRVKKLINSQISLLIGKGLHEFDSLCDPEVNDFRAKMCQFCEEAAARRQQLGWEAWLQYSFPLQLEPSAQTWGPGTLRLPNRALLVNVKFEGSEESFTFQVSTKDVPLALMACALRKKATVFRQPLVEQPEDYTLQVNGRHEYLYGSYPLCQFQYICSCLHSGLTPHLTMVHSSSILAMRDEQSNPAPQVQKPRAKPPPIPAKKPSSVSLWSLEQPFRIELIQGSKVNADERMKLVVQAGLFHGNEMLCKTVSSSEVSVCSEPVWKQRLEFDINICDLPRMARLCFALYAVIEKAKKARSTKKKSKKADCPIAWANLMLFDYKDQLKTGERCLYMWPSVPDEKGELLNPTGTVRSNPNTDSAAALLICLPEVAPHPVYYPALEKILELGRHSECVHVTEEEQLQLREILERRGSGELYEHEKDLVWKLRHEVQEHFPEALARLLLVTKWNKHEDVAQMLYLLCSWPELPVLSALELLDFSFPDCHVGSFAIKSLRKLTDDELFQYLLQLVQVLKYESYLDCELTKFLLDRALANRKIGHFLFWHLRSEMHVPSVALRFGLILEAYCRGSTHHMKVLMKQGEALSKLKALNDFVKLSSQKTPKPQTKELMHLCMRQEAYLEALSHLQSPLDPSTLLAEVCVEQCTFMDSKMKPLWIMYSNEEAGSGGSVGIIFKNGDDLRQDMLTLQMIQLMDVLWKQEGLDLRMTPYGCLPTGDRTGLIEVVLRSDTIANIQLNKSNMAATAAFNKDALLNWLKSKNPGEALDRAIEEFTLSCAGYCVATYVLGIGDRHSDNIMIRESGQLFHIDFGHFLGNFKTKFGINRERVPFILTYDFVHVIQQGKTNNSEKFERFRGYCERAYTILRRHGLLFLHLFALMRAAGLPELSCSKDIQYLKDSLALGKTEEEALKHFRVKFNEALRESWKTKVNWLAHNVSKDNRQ

[4] = target: Phosphatidylinositol 4,5-bisphosphate 3-kinase catalytic subunit alpha isoform (Homo sapiens, UniProt P42336); assay: Inhibition of GST-tagged PI3Kalpha […] (unknown origin) using PIP2 as subtrate after 1 hr in presence of biotin-labeled PIP3 by TR-FRET assay

Measured: IC50

Sequence of Phosphatidylinositol 4,5-bisphosphate 3-kinase catalytic subunit beta isoform (P42338 whole entry, canonical isoform): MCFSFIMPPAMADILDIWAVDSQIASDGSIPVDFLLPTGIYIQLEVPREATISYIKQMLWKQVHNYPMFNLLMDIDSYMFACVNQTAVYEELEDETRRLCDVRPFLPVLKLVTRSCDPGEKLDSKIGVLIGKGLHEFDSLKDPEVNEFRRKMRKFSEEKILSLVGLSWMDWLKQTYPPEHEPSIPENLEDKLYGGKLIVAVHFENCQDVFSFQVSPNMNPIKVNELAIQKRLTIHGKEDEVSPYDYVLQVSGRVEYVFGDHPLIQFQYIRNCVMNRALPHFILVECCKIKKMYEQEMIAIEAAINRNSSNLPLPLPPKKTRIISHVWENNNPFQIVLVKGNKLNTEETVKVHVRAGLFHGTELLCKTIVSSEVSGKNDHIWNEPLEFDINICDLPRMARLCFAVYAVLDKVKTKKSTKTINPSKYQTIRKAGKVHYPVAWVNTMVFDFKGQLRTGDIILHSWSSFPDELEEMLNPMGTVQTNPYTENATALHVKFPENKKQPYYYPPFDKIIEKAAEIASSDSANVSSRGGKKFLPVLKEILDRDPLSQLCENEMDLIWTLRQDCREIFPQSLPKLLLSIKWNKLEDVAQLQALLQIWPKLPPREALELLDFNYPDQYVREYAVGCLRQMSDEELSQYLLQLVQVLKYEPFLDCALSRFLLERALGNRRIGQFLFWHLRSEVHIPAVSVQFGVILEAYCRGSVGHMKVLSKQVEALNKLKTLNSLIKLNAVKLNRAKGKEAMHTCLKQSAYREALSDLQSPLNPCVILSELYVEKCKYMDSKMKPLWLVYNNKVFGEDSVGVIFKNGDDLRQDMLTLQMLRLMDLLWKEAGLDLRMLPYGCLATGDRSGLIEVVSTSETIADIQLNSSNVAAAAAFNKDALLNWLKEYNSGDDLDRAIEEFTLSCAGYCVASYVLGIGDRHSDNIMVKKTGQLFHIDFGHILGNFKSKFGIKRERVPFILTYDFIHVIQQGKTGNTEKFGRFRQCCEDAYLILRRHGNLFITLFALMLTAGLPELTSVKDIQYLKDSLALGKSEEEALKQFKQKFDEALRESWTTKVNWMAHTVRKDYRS
Sequence of Phosphatidylinositol 4,5-bisphosphate 3-kinase catalytic subunit gamma isoform (P48736 whole entry, canonical isoform): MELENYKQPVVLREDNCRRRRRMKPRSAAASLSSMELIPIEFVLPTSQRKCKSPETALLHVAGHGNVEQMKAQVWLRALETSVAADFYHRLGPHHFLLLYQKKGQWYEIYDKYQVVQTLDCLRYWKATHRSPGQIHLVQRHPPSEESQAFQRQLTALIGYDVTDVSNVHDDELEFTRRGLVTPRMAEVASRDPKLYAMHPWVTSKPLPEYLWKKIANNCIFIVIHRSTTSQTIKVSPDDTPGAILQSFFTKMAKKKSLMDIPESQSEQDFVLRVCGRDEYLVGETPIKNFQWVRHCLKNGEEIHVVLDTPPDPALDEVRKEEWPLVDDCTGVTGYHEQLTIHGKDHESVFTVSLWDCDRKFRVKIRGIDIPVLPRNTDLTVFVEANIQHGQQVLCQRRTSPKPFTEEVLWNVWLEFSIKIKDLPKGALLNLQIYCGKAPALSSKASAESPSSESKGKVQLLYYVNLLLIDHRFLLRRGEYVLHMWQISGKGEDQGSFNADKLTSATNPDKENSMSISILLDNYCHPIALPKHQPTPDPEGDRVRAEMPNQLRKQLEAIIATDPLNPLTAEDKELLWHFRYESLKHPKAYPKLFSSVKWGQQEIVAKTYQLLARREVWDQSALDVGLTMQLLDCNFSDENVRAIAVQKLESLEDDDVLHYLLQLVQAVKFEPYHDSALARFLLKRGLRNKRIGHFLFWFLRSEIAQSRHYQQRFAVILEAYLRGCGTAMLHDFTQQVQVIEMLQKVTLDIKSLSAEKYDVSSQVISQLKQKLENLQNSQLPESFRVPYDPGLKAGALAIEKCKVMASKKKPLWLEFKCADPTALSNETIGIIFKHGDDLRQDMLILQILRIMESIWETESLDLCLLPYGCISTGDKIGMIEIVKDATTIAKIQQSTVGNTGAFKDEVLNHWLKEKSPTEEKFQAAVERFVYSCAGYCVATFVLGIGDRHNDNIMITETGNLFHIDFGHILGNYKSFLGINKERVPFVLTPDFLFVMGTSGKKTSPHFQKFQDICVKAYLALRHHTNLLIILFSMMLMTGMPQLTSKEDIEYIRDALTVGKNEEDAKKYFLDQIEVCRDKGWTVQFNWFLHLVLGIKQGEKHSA
Sequence of Phosphatidylinositol 4,5-bisphosphate 3-kinase catalytic subunit alpha isoform (P42336 whole entry, canonical isoform): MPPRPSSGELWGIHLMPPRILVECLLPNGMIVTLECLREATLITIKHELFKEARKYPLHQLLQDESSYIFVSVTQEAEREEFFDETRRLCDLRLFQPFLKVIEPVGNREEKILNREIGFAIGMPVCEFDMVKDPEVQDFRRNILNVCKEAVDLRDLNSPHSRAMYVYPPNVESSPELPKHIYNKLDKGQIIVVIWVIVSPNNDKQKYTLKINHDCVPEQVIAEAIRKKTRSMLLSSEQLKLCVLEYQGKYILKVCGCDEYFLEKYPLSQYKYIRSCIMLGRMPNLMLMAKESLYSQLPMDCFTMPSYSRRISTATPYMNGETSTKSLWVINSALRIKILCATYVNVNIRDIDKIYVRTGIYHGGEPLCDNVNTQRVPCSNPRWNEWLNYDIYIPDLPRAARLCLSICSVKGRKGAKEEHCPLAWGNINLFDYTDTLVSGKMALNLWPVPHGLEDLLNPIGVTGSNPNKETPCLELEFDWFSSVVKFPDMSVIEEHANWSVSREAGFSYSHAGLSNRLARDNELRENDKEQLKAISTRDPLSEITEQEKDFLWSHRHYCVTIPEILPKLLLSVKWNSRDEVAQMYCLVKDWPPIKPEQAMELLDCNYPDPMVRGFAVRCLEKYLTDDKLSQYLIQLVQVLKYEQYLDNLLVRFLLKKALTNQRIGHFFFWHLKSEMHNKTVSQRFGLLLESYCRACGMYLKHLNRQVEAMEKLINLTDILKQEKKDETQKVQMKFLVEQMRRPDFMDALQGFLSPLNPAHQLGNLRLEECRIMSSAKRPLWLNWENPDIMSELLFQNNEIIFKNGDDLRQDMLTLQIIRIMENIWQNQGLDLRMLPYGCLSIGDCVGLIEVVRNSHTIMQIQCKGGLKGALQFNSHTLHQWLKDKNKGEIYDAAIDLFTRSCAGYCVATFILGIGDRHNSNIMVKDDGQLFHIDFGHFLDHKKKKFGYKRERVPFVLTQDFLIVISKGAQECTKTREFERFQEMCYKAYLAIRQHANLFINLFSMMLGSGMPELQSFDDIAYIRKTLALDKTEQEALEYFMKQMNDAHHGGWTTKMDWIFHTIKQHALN

COc1ncc(N2CCOCC2)cc1S(=O)(=O)Nc1ccnc(-c2ccc(CN3CCN(C4COC4)CC3)cc2)c1
≤ 10 µM: all assays above

COc1ncc(N2CCOCC2)cc1S(=O)(=O)Nc1ccnc(-c2ccc(CN3CCN(C4CCC4)CC3)cc2F)c1
≤ 10 µM: all assays above

CC(C)N1CCN(Cc2ccc(-c3cc(NS(=O)(=O)c4cc(N5CCOCC5)cnc4N(C)C)ccn3)c(F)c2)CC1
≤ 10 µM: all assays above

CCC(C)N1CCN(Cc2ccc(-c3cc(NS(=O)(=O)c4cc(N5CCOCC5)cnc4OC)ccn3)cc2)CC1 (stereo not drawn)
≤ 10 µM: all assays above

COCCN1CCN(Cc2ccc(-c3cc(NS(=O)(=O)c4cc(N5CCOCC5)cnc4OC)ccn3)c(F)c2)CC1
≤ 10 µM: all assays above

COc1ncc(N2CCOCC2)cc1S(=O)(=O)Nc1ccnc(-c2ccc(CN3CCC(C)C3)cc2F)c1 (stereo not drawn)
≤ 10 µM: all assays above

CCOC(=O)CN(c1ccnc(-c2ccc(CN3CCN(C(C)C)CC3)cc2F)c1)S(=O)(=O)c1cc(N2CCOCC2)cnc1OC
≤ 10 µM: all assays above

CCOc1ncc(N2CCOCC2)cc1S(=O)(=O)Nc1ccnc(-c2ccc(CN3C[C@@H](C)O[C@@H](C)C3)cc2F)c1
≤ 10 µM: all assays above

COc1ncc(N2CCOCC2)cc1S(=O)(=O)N(c1ccnc(-c2ccc(CN3CCN(C(C)C)CC3)cc2F)c1)C(C)C
≤ 10 µM: all assays above

COc1ncc(N2CCOCC2)cc1S(=O)(=O)Nc1ccnc(-c2ccc(CN3CCCC3)c(F)c2)c1
≤ 10 µM: all assays above

COc1ncc(N2CCOCC2)cc1S(=O)(=O)Nc1ccnc(-c2ccc(CN3CCN(C(C)(C)C)CC3)cc2)c1
≤ 10 µM: all assays above

COc1ncc(N2CCOCC2)cc1S(=O)(=O)Nc1ccnc(-c2ccc(CN3C[C@@H](C)O[C@@H](C)C3)cc2)c1
≤ 10 µM: all assays above

CN(C)c1ncc(N2CCOCC2)cc1S(=O)(=O)Nc1ccnc(-c2ccc(CN3CCN(C(C)(C)C)CC3)cc2F)c1
≤ 10 µM: all assays above

COc1ncc(N2CCOCC2)cc1S(=O)(=O)Nc1ccnc(-c2ccc(CN3CCCCC3)cc2F)c1
≤ 10 µM: all assays above

COc1ncc(N2CCOCC2)cc1S(=O)(=O)Nc1ccnc(-c2ccc(CN3CCN(C(C)C)CC3)cc2F)c1
≤ 10 µM: all assays above

COc1ncc(N2CCOCC2)cc1S(=O)(=O)Nc1ccnc(-c2cc(Cl)c(CN3CCN(C(C)C)CC3)cc2F)c1
≤ 10 µM: all assays above

CCN(c1ccnc(-c2ccc(CN3CCN(C(C)C)CC3)cc2F)c1)S(=O)(=O)c1cc(N2CCOCC2)cnc1OC
≤ 10 µM: all assays above

COc1ncc(N2CCOCC2)cc1S(=O)(=O)Nc1ccnc(-c2c(F)cc(CN3CCN(C(C)C)CC3)cc2F)c1
≤ 10 µM: all assays above

COc1ncc(N2CCOCC2)cc1S(=O)(=O)Nc1ccnc(-c2ccc(CN3CCN(C(C)C)CC3)cc2)c1
≤ 10 µM: all assays above

COc1ncc(N2CCOCC2)cc1S(=O)(=O)Nc1ccnc(-c2ccc(CN3CCNCC3)cc2F)c1
≤ 10 µM: all assays above

COc1ncc(N2CCOCC2)cc1S(=O)(=O)Nc1ccnc(-c2ccc(CN3CCN(C(C)C)CC3)c(F)c2F)c1
≤ 10 µM: all assays above

COc1ncc(N2CCOCC2)cc1S(=O)(=O)Nc1ccnc(-c2ccc(CN3CCN(C4COC4)CC3)cc2F)c1
≤ 10 µM: all assays above

COc1ncc(N2CCOCC2)cc1S(=O)(=O)Nc1ccnc(-c2ccc(CN3CCCC3C)cc2F)c1 (stereo not drawn)
≤ 10 µM: all assays above

COc1ncc(N2CCOCC2)cc1S(=O)(=O)Nc1ccnc(-c2ccc(CN3CCCC3)cc2F)c1
≤ 10 µM: all assays above

CCCN(c1ccnc(-c2ccc(CN3CCN(C(C)C)CC3)cc2F)c1)S(=O)(=O)c1cc(N2CCOCC2)cnc1OC
≤ 10 µM: all assays above

COc1ncc(N2CCOCC2)cc1S(=O)(=O)Nc1ccnc(-c2ccc(CN3CCN(C(C)C)CC3)c(F)c2)c1
≤ 10 µM: all assays above

COc1ncc(N2CCOCC2)cc1S(=O)(=O)Nc1ccnc(-c2ccc(CN3CCOCC3)cc2)c1
≤ 10 µM: all assays above

COc1ncc(N2CCOCC2)cc1S(=O)(=O)Nc1ccnc(-c2cc(F)c(CN3CCN(C(C)C)CC3)cc2F)c1
≤ 10 µM: all assays above

COc1ncc(N2CCOCC2)cc1S(=O)(=O)Nc1ccnc(-c2ccc(CN3CCC(C(C)(C)O)CC3)cc2F)c1
≤ 10 µM: all assays above

COc1ncc(N2CCOCC2)cc1S(=O)(=O)N(COC(=O)C(C)(C)C)c1ccnc(-c2ccc(CN3CCN(C(C)C)CC3)cc2F)c1
≤ 10 µM: all assays above

COc1ncc(N2CCOCC2)cc1S(=O)(=O)Nc1ccnc(-c2cc(F)c(CN3CCN(C(C)C)CC3)c(F)c2)c1
≤ 10 µM: all assays above

COc1ncc(N2CCOCC2)cc1S(=O)(=O)Nc1ccnc(-c2ccc(CN3CCN(C(C)(C)C)CC3)cc2F)c1
≤ 10 µM: all assays above

COc1ncc(N2CCOCC2)cc1S(=O)(=O)Nc1ccnc(-c2ccc(CN3C[C@@H](C)O[C@@H](C)C3)cc2F)c1
≤ 10 µM: all assays above

COc1ncc(N2CCOCC2)cc1S(=O)(=O)N(C)c1ccnc(-c2ccc(CN3CCN(C(C)C)CC3)cc2F)c1
≤ 10 µM: all assays above

COc1ncc(N2CCOCC2)cc1S(=O)(=O)N(C)c1ccnc(-c2ccc(CN3CCN(C(C)(C)C)CC3)cc2F)c1
≤ 10 µM: all assays above

COc1ncc(N2CCOCC2)cc1S(=O)(=O)Nc1ccnc(-c2ccc(CN3CCN(C4CCC4)CC3)cc2)c1
≤ 10 µM: all assays above

COc1ncc(N2CCOCC2)cc1S(=O)(=O)Nc1ccnc(-c2ccc(CN(C)C)cc2)c1
≤ 10 µM: all assays above
